For experiment [1], the system named is human CD40 transgenic mice. The experiment can be described thus: Mouse skin graft rejection model (antibodies, tacrolimus combination). Format: in vivo. The source says:
Male Balb/c mice, 6 weeks old, were purchased from the Laboratory Animal Management Department, Shanghai Institute of Planned Parenthood Research. Housing environment: SPF; certification number: 20180006023393.
On day-2 of the experiment, the mice were intraperitoneally injected with tacrolimus FK506 or CD40 antagonistic antibodies. On day 0 of the experiment, donor Balb/c mice and C57BL6/J mice were anesthetized with 4% chloral hydrate. The tails of the donor mice were removed, and full circles of skin, 1 cm in length, were isolated from the tails. The hair on the acceptor mice's back was removed, and an incision was made along the skin layer. An equal area of skin was removed while preserving the back fat and connective tissue. The donor skin was placed on the acceptor mice's incision site, and the incision was closed with glue. The mice were then placed back in cages to recover.
The mice were dosed according to the administration regimens in Table 16. After 7 days of recovery, the mouse skin survival was observed daily and rejection scores were recorded.

Experiment [2] has as its target CD40 (Homo sapiens, UniProt P25942). The experiment is described as follows: DC cell activation assay system (monocyte-derived DC, CD40L-induced CD80/CD86, IL-12/23 p40, TNFα). Details: endogenous in cells; host or cells: human PBMCs (B cells); DCs differentiated from human CD14+ monocytes. The format is cell-based. The source says: CD40 is highly expressed on dendritic cells (DCs), and CD40L, upon binding to CD40, can induce DC activation, up-regulate the expression of multiple activation markers on the DC cell surface, and promote the secretion of multiple inflammatory factors from DCs, further amplifying immune responses. CD40 antagonistic antibodies block the binding of CD40L to CD40, thereby eliminating the immune activation process of DC cells.
Monocytes were sorted and enriched from fresh primary human peripheral blood PBMCs using the EsaySep™ human CD14 sorting kit (Stemcell, 19359), and differentiated for 6 days with RPMI-1640 medium (10% FBS and 1% penicillin-streptomycin), 50 ng/ml IL-4 (PeproTech, 200-04), and 50 ng/mL GM-CSF (PeproTech, 300-03). On day 7, the differentiated DC cells were plated at 1E5/well into a 96-well cell culture plate. Serially diluted test antibodies were added to the wells, and the cells were co-incubated at 37° C. in 5% CO2 for 0.5 h. CD40L-his and an anti-His antibody were then added to each well at final concentrations. After 48 h of culture, the level of DC cell activation was measured by flow cytometry: after centrifugation, the supernatant was removed, and the cells were washed twice with FACS buffer (PBS+2% FBS) and stained at room temperature for 15 min with 100 μL of Fixable viability dye EF780 (Invitrogen, 65086514) diluted at 1:1000. The cells were washed twice and then blocked at room temperature for 10 min with 100 μL of human Fc blocker (BD, 564220) diluted at 1:200. After centrifugation, the cells were incubated at 4° C. for 0.5 h with flow cytometry antibodies (Alexa Fluor® 700 anti-human CD11c (Biolegend, 337220), Brilliant Violet 421™ anti-human CD80 (Biolegend, 305221), and APC anti-human CD86 (Biolegend, 305412)) diluted at 1:200. After centrifugation, the supernatant was removed, the cells were washed twice with FACS buffer and then resuspended in 200 μL of PBS, and the fluorescence intensity on the cell surface was measured by a flow cytometer (BD FACS Celesta).
In addition, the level of cytokine secretion in the supernatant was measured after 24 h (TNFα, Cisbio, 62[…]) and 48 h (IL-12/23 p40, Novus, VAL121) of culture.
With reference to the method in Example 11, the inhibitory activity of the anti-CD40 antibody 9E6-L4H2-AAYTE carrying the AAYTE mutation in the Fc in the DC cell activation assay system was measured.

Experiment [3] concerns human CD40 transgenic mice. The experiment can be described thus: Mouse T cell-dependent humoral immune response (TDAR) model, anti-KLH specific IgG. The format is in vivo. The settings on record: 0.3 mpk BIW ip, hCD40 transgenic mice (IgG1 control 1 mg/kg). The method, then: On day 0 of the experiment, one of the mice in each group was subjected to blood collection followed by intraperitoneal injection. On day 1, each mouse was intraperitoneally injected with 50 μg of KLH (KLH:complete Freund's adjuvant (CFA)=1:1 emulsified immune complex) for immunization. On day 15 of the experiment, each mouse was intraperitoneally injected with 50 μg of KLH (KLH:incomplete Freund's adjuvant (IFA)=1:1 emulsified immune complex) for a second immunization. Each group was intraperitoneally injected twice a week, and blood samples of about 150 μL were collected from the orbital venous plexus on days 7, 14, 21, and 28. Whole blood was left to stand at room temperature for 1-4 h and centrifuged at 7000 rpm at 4° C. for 10 min to separate serum, and the serum was stored at −80° C. for later use.
Mouse serum was separated weekly and assayed by ELISA for the anti-KLH specific IgG level.

Experiment [4] has as its target T1, Raji cell surface human CD40 (Homo sapiens, UniProt P25942).
T1 construct: Raji cells highly express human CD40 on the cell surface; endogenous in cells; host or cells: Raji cells
The experiment is described as follows: FACS binding of humanized anti-CD40 antibodies to Raji cells. The protocol: Raji cells highly express human CD40 on the cell surface and thus can be used to detect the binding properties of CD40 antagonistic antibodies to the cell surface human CD40.
Raji cells were plated at 1.5E5 cells/well, and various concentrations of CD40 antagonistic antibodies were added. The plate was incubated at 4° C. for 1 h. After two washes with FACS buffer (PBS+2% FBS), a secondary antibody (Alexa Flour488 conjugated anti-human IgG (H+L) antibody) was added, and the plate was incubated at 4° C. for 0.5 h. After two washes with FACS buffer, the fluorescence intensity on the cell surface was measured by flow cytometry (BD FACS Celesta).

Like-named read-outs stand apart in the source and are kept apart here.

Sequence of CD40 (P25942 21-277): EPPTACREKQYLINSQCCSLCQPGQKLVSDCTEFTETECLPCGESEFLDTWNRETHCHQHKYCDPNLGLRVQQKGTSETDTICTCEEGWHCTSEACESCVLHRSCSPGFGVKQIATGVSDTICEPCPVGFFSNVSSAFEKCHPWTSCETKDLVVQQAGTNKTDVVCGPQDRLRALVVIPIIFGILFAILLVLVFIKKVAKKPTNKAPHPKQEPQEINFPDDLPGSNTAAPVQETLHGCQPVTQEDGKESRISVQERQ
T1 sequence (P25942 21-277): as above

Consider “CFZ533: anti-CD40 antagonistic antibody CFZ533 (i.e., iscalimab), positive control, variable regions from U.S. Pat. No. 8,277,810B”, for which the “Day-15 skin graft survival rate (%)” value in experiment [1] (3 mpk ip) is listed as 0%. The “Skin graft score, 8 days” value in experiment [1] (3 mpk, score 3 (best) to 0 (rejected)) came out at 2.7. In addition, in experiment [1] (3 mpk, score 3 to 0), the “Skin graft score, 10 days” value was found to be 2.1; the “Skin graft score, 15 days” value was determined as 0; the “Skin graft score, 20 days” value is 0. For the same substance, in experiment [1] (10 mpk ip), the “Day-15 skin graft survival rate (%)” value is on record as 0%. In addition, in experiment [1] (10 mpk, score 3 to 0), the “Skin graft score, 8 days” value was 2.9; the “Skin graft score, 10 days” value worked out at 2.1; the “Skin graft score, 15 days” value came to 0; the “Skin graft score, 20 days” value came out at 0. Also, the IC50 in experiment [2] (48 h, read-out: IC50 (nM) in DC cell activation assay system, CD80 MFI) was found to be 1.19 nM. In experiment [2] (48 h, read-out: IC50 (nM) in DC cell activation assay system, CD86 MFI), the IC50 was found to be 1.93 nM. Also, the IC50 in experiment [2] (supernatant, 24 h, read-out: IC50 (nM) in DC cell activation assay system, TNFα) is 0.35 nM. Besides, in experiment [2] (supernatant, 48 h, read-out: IC50 (nM) in DC cell activation assay system, IL-12/23 p40), the IC50 is 0.68 nM. In addition, in experiment [3], the “anti-KLH specific IgG, Day 7” value was 0.04 ± 0.01; the “anti-KLH specific IgG, Day 14” value is reported as 30.9 ± 10.8; the “anti-KLH specific IgG, Day 21” value came out at 845 ± 423; the “anti-KLH specific IgG, Day 28” value is listed as 3043 ± 1600. This substance came in with an EC50 in experiment [4] of 1.01 nM.

The values above are taken from patent US20260207759A1, “COMPOSITION OF CD40-BINDING MOLECULE AND PHARMACEUTICAL USE THEREOF” (SUZHOU SUNCADIA BIOPHARMACEUTICALS CO., LTD., priority 2022, published 2026).
